Assay results reported in patent US20230073834A1, “SUBNORMOTHERMIC MACHINE PERFUSION OF ORGANS WITH CARBON MONOXIDE AND OXYGEN” (priority 2021, published 2023).

Experiments:
porcine DCD kidneys = assay: Ex vivo pulsatile perfusion of porcine DCD kidneys with CORM-401 in UW solution, then blood reperfusion; set-up: species or system large male Landrace pig
Protocol: (§1) Methods: To stimulate donation after circulatory death condition, kidneys from large male Landrace pig were retrieved after 1-hour warm ischemia in situ by cross-clamping the renal pedicle. […] Kidneys were then reperfused with normothermic isogeneic porcine blood through oxygenated pulsatile perfusion for 10 hours. Urine was collected, vascular flow was assessed during reperfusion and histopathology was assessed after 10 hours of reperfusion. Sections were stained with H&E (not shown), TUNEL (FIG. 4A) and MSB (FIG. 4B) to quantify ATN (FIG. 4C), Apoptosis (brown spot), Hemorrhage (yellow stain), and neutrophil gelatinase-associated lipocalin (NGAL) to quantify kidney injury (FIG. 4D).

Toll-like receptor 2 = assay: Toll-like receptor suppression in CORM-401 perfused porcine DCD kidneys; set-up: species or system large male Landrace pig; settings: 200 μM CORM-401 perfused kidneys
Protocol: as §1

Toll-like receptor 4 = assay: as above; set-up: species or system large male Landrace pig; settings: 200 μM CORM-401 perfused kidneys
Protocol: as §1

Toll-like receptor 6 = assay: as above; set-up: species or system large male Landrace pig; settings: 200 μM CORM-401 perfused kidneys
Protocol: as §1

Pig kidneys = assay: Ex vivo subnormothermic (22° C.) pulsatile perfusion of pig kidneys with HBOC-201 versus blood or static cold storage
Protocol: Methods: Pig kidneys (n=5) were procured after 30 minutes of warm in situ ischemia by cross-clamping the renal arteries. Organs were flushed with histidine tryptophan ketoglutarate solution and subjected to static cold storage or pulsatile perfusion with an RM3 pump at 22° C. for 4 hours with HBOC-201 and blood. Thereafter, kidneys were reperfused with normothermic (37° C.) oxygenated blood for 4 hours. Blood and urine were subjected to biochemical analysis. Total urine output, urinary protein, albumin/creatinine ratio, flow rate, resistance were measured. Acute tubular necrosis, apoptosis, urinary kidney damage markers, neutrophil gelatinase-associated lipocalin 1, and interleukin 6 were also assessed.

[1] = 200 μM, 4 h perfusion at 4° C. in UW solution, 10 h blood reperfusion, vs inactive CORM-401
[2] = 22° C. 4 hours perfusion, 4 hours reperfusion, as with blood
[3] = 22° C. 4 hours perfusion, 4 hours reperfusion, versus cold storage

**Q.** For `CN(CC(=O)O)C(=S)[S-].[C-]#[O+].[C-]#[O+].[C-]#[O+].[C-]#[O+].[Mn]` [CORM-401], which “intrarenal hemorrhage and vascular dotting during reperfusion” value (porcine DCD kidneys; 200 μM, 4 h perfusion at 4° C. in UW solution, 10 h blood reperfusion) is on record?
**A.** prevented

**Q.** And the “ATN (acute tubular necrosis) in histopathologic sections” value (porcine DCD kidneys; [1])?
**A.** reduced

**Q.** What about the “dUTP nick end labeling staining in histopathologic sections” value (porcine DCD kidneys; [1]) of the same molecule?
**A.** reduced

**Q.** What about the “kidney damage markers (kidney damage marker-1 and neutrophil gelatinase-associated lipocalin)” value (porcine DCD kidneys; [1]) of the same molecule?
**A.** attenuated

**Q.** What about the urinary protein excretion (porcine DCD kidneys; 200 μM, 4 h perfusion at 4° C. in University of Wisconsin solution, 10 h normothermic blood reperfusion, vs inactive CORM-401) of the same molecule?
**A.** reduced

**Q.** And the “injury in porcine DCD kidneys” value (porcine DCD kidneys; 1 h warm ischemia, perfusion with UW solution, 10 h blood reperfusion at 37° C.)?
**A.** reduced injury

**Q.** What about the “Toll-like receptor 2 suppression (anti-inflammatory action)” value (Toll-like receptor 2) of the same molecule?
**A.** suppressing

**Q.** What about the “Toll-like receptor 4 suppression (anti-inflammatory action)” value (Toll-like receptor 4) of the same molecule?
**A.** suppressing

**Q.** And the “Toll-like receptor 6 suppression (anti-inflammatory action)” value (Toll-like receptor 6)?
**A.** suppressing

**Q.** “HBOC-201: acellular hemoglobin-based oxygen carrier; blood free oxygen carrier (Hemopure)” was tested. Which “renal blood flow and function upon reperfusion” value (Pig kidneys; 22° C. 4 hours perfusion, 4 hours reperfusion with 37° C. oxygenated blood, compared with blood-treated kidneys) did it give?
**A.** similar

**Q.** What about the IL6 levels (Pig kidneys; [2]) of the same molecule?
**A.** similarly reduced

**Q.** And the Urinary damage markers (Pig kidneys; [2])?
**A.** similarly reduced

**Q.** And the “TUNEL staining (apoptosis)” value (Pig kidneys; [3])?
**A.** vastly reduced

**Q.** What about the “acute tubular necrosis scores” value (Pig kidneys; [3]) of the same molecule?
**A.** vastly reduced

**Q.** What about the “TUNEL staining (apoptosis)” value (Pig kidneys; 22° C. 4 hours perfusion, 4 hours reperfusion, versus cold storage, listed as HBOC) of the same molecule?
**A.** reduces apoptosis

**Q.** And the tissues oxygen saturation (Pig kidneys; 22° C., 4 hours perfusion, compared with blood)?
**A.** equivalent to blood
